Data as given in publication PMC11434840, “Discovery of Benzopyrone-Based Candidates as Potential Antimicrobial and Photochemotherapeutic Agents through Inhibition of DNA Gyrase Enzyme B: Design, Synthesis, In Vitro and In Silico Evaluation” (Pharmaceuticals, 2024).
Read-outs that look alike come from different tables or passages of the source.

Assays:
[1] = tested on: Bacillus subtilis ATCC 14579; assay: Antimicrobial agar cup-plate assay, B. subtilis; type: cell-based; design: key: -: no activity; settings: 0.1 mL of compound in DMF, overnight incubation, mean ± SD, at least three experiments
Method: (§1) The antimicrobial activity of all newly synthesized compounds was determined using the agar cup-plate method using the Hi-Media agar medium. Xanthotoxin, tobramycin, and amphotericin B were used as reference drugs. All newly synthesized compounds were tested against two strains of Gram-positive bacteria (Bacillus subtilis ATCC 14579 and Staphylococcus aureus ATCC 25923), Gram-negative bacteria (Escherichia coli ATCC 25922), and yeast (Candida albicans ATCC 10231).
(§2) The nutrient agar medium consists of 0.3% of beef extract, 0.5% of peptone, 0.1% dipotassium hydrogen phosphate, and 1.5% agar. Broth cultures of the organisms were prepared by incubating slant agar seeded with the organisms overnight.
(§3) The prepared broth culture (0.02 mL) was carefully added to sterile Petri dishes. Then, 10 mL of the liquefied nutrient agar medium was poured into each dish, mixed uniformly, and allowed to solidify. Using a sterilized cork borer, cups (9 mm) were scooped out of the agar media contained in the Petri dishes. Each test compound (50 mg) was dissolved in 1 mL DMF (50 mg mL^−1), which was used as a stock solution to carry out the twofold dilution technique. A fixed volume (0.1 mL) of the tested compounds dissolved in dimethylformamide (DMF) was added. Each plate contained a cup filled with DMF to disregard the effect of solvent. Additionally, two other cups were filled with tobramycin and xanthotoxin being used as reference drugs. The plates were incubated overnight to examine the antimicrobial activity. Zones of inhibition obtained by each test compound were measured in millimeters and the results are recorded in Table 2.
(§4) GraphPad Prism-version 5 (GraphPad Software, Inc., La Jolla, CA, USA) was used for statistical analysis.

[2] = tested on: Candida albicans ATCC 10231; assay: Antimicrobial agar cup-plate assay, C. albicans; type: cell-based; design: key to Inhibition Zone (mm) C. albicans: -: no activity; settings: 0.1 mL of compound in DMF, overnight incubation, mean ± SD, at least three experiments
Method: as §1, §2, §3, §4

[3] = tested on: Escherichia coli ATCC 25922; assay: Antimicrobial agar cup-plate assay, E. coli; type: cell-based; settings: 0.1 mL of compound in DMF, overnight incubation, mean ± SD, at least three experiments
Method: as §1, §2, §3, §4

[4] = tested on: Staphylococcus aureus ATCC 25923; assay: Antimicrobial agar cup-plate assay, S. aureus; type: cell-based; design: key: -: no activity; settings: 0.1 mL of compound in DMF, overnight incubation, mean ± SD, at least three experiments
Method: as §1, §2, §3, §4

[5] = tested on: Bacillus subtilis ATCC 14579; assay: Photosensitizing assay (MIC before and after UV irradiation, agar cup-plate); type: cell-based; design: key to MIC (mg mL^−1) Control / MIC (mg mL^−1) Test / MIC (mM) Control / MIC (mM) Test: -: no activity; settings: B. subtilis; for MIC: Bacillus subtilis, ATCC14579, light or radiation study
Method: The photosensitizing activity was determined using the agar cup-plate method (described in Section 2.3) with Hi-Media agar medium. The antibacterial activity against Bacillus subtilis ATCC 14579 was measured before and after exposure to UV lamp (365 nm). The diameters of the inhibition zones were measured in mm and the results were compared with xanthotoxin. The tested organism used was Bacillus subtilis.
For the photosensitizing activity, xanthotoxin was used as a reference drug and DMF as a negative control. The minimum inhibitory concentrations (MIC) were determined using the agar cup-plate method. Each test compound (50 mg) was dissolved in 1 mL DMF (50 mg mL^−1), which was used as a stock solution to carry out the twofold dilution technique. The sample size for all the compounds was adjusted to 0.1 mL. The solution of the test compound (0.1 mL) was added to the cups. The plates were divided into test plates and duplicate plates. Before irradiation, the test plates were incubated in the dark at 37 °C for 3 h to permit the diffusion of the tested compounds through the agar layer. The duplicate plates were incubated overnight and used as a control for the determination of the antibacterial activity. The covers were removed from the test plates, and the dishes were exposed to UV lamp (365 nm) for 20 min. After irradiation, the plates were left overnight in the dark at 37 °C. MIC, the least concentration preventing visible bacterial growth, was determined in both the control and test, indicating the antibacterial and photosensitizing activity of the tested compounds, respectively.
To evaluate the significance of the difference in the results, each experiment was repeated at least three times. […] GraphPad Prism-version 5 (GraphPad Software, Inc., La Jolla, CA, USA) was used to perform statistical analysis of the results.

E. coli DNA gyrase = molecular target: T1, E. coli DNA gyrase (Escherichia coli, UniProt P0AES6); assay: In vitro DNA gyrase supercoiling inhibitory assay; type: biochemical; settings: mean ± SD of three separate experiments
T1 construct: purchased John Innes Enterprises Ltd
Method: The supercoiling assay, based on DNA triplex, formation [43] was performed on the black streptavidin-coated 96-well microtiter plates (Thermo Scientific Pierce). Serial dilutions of the tested compounds and standard drugs were prepared, starting from 5.0 U/mL (5.0, 2.5, 1.25, 0.625, 0.312, 0.156, and 0.078 U/mL). The plates were first rehydrated with the supplied wash buffer [20 mM Tris-HCl (pH 7.6), 137 mM NaCl 0.01% (w/v), BSA 0.05% (v/v) Tween 20] and oligonucleotide was immobilized onto the wells. The excess oligonucleotide was then washed off, and the enzyme assay was carried out in the wells.
The final reaction volume of 30 μL in buffer [35 mM Tris × HCl (pH 7.5), 24 mM KCl, 4 mM MgCl2, 2 mM DTT (dithiothreitol), 1.8 mM spermidine, 1 mM ATP, 6.5% (w/v) glycerol, 0.1 mg/mL albumin] contained 1.5 U of gyrase from E. coli, 0.75 μg of relaxed pNO1 plasmid, and 3 μL of inhibitor solution in 10% DMSO and 0.008% Tween 20. Reactions were incubated for 30 min at 37 °C and after the addition of the TF buffer [50 mM NaOAc (pH 5.0), 50 mM NaCl, and 50 mM MgCl2], which terminated the enzymatic reaction for another 30 min at rt to allow the triplex formation. The unbound plasmid was then washed off using TF buffer, and a solution of SybrGOLD stain in T10 buffer [10 mM Tris × HCl (pH 8.0) and 1 mM EDTA] was added. After mixing, the fluorescence (excitation: 495 nm, emission: 537 nm) was measured using BioTek Synergy HT microplate reader. […] GraphPad Prism-version 5 (GraphPad Software, Inc., La Jolla, CA, USA) was used to determine the IC50 values of both the tested compounds and standard drugs across the different concentrations.

[6] = 20 min, after irradiation with UV lamp (365 nm) for 20 min (photosensitizing activity), 100 μL per cup, read-out: MIC (mg mL^−1) Test
[7] = 20 min, after irradiation with UV lamp (365 nm) for 20 min (photosensitizing activity), read-out: MIC (mM) Test
[8] = without irradiation (antibacterial activity), 100 μL per cup, read-out: MIC (mg mL^−1) Control
[9] = without irradiation (antibacterial activity), read-out: MIC (mM) Control
[10] = after irradiation with UV lamp (365 nm) for 20 min (photosensitizing activity)
[11] = after irradiation with UV lamp (365 nm) for 20 min (photosensitizing activity), 100 μL per cup
[12] = without irradiation (antibacterial activity)
[13] = without irradiation (antibacterial activity), 100 μL per cup
[14] = IC50 (μM) DNA gyrase supercoiling
[15] = IC50 (μg mL^−1) DNA gyrase supercoiling

Row | Compound | melting point [°C] | Inhibition Zone (mm) B. subtilis [1] | Inhibition Zone (mm) C. albicans [2] | Inhibition Zone (mm) E. coli [3] [mm] | Inhibition Zone (mm) S. aureus [4] | MIC [5, 6] [µg/mL] | MIC [5, 7] [mM] | MIC [5, 8] [µg/mL] | MIC [5, 9] [mM] | MIC (mM) Test [5, 10] | MIC (mg mL^−1) Test [5, 11] | MIC (mM) Control [5, 12] | MIC (mg mL^−1) Control [5, 13] | IC50 (E. coli DNA gyrase; [14]) [µM] | IC50 (E. coli DNA gyrase; [15]) [µM]
1 | CCc1cc2c(C)cc(=O)oc2cc1OCC(=O)c1ccccc1 [Compound 7a, 6-Ethyl-4-methyl-7-phenacyloxy-2H-1-benzopyran-2-one] | 165 to 166 | 12 ± 1.414 mm | - | 20 ± 0.8165 | 28 ± 1.414 mm | 1500 | 4.65 | 6250 | 19.4 |  |  |  |  |  | 
2 | CCc1cc2c(C)cc(=O)oc2cc1OCC(=O)c1ccc(C)cc1 [Compound 7b, 6-Ethyl-4-methyl-7-(4-methylphenacyloxy)-2H-1-benzopyran-2-one] | 136 to 139 | 13 ± 1.414 mm | - | 20 ± 1.414 | 24 ± 1.414 mm | 190 | 0.56 | 1500 | 4.46 |  |  |  |  |  | 
3 | CCc1cc2c(C)cc(=O)oc2cc1OCC(=O)c1ccc(OC)cc1 [Compound 7c, 6-Ethyl-4-methyl-7-(4-methoxyphenacyloxy)-2H-1-benzopyran-2-one] | 162 to 164 | 10 ± 1.414 mm | - | 15 ± 1.414 | - | 3120 | 8.87 | 12500 | 35.5 |  |  |  |  |  | 
4 | CCc1cc2c(-c3ccccc3)cc(=O)oc2cc1OCC(=O)c1ccccc1 [Compound 7d, 6-Ethyl-7-phenacyloxy-4-phenyl-2H-1-benzopyran-2-one] | 153 to 155 | 9 ± 1.414 mm | - | 16 ± 1.414 | - | 6250 | 16.3 | 6250 | 16.3 |  |  |  |  |  | 
5 | CCc1cc2c(-c3ccccc3)cc(=O)oc2cc1OCC(=O)c1ccc(C)cc1 [Compound 7e, 6-Ethyl-7-(4-methylphenacyloxy)-4-phenyl-2H-1-benzopyran-2-one] | 225 to 226 | - | - | 20 ± 0.8165 | - |  |  |  |  | - | - | - | - ^d |  | 
6 | CCc1cc2c(-c3ccccc3)cc(=O)oc2cc1OCC(=O)c1ccc(OC)cc1 [Compound 7f, 6-Ethyl-7-(4-methoxyphenacyloxy)-4-phenyl-2H-1-benzopyran-2-one] | 183 to 185 | - | 16 ± 0.8165 mm | 23 ± 0.8165 | - |  |  |  |  | - | - | - | - |  | 
7 | CCc1cc2c(C)cc(=O)oc2c2c(-c3ccccc3)coc12 [Compound 8a, 9-Ethyl-7-methyl-3-phenyl-5H-furo[2,3-h]benzopyran-5-one] | 103 to 105 | 20 ± 1.414 mm | - | 30 ± 1.414 | 25 ± 1.414 mm | 97 | 0.32 | 310 | 1.02 |  |  |  |  | 7.89 ± 0.117 | 7.89
8 | CCc1cc2c(C)cc(=O)oc2c2c(-c3ccc(C)cc3)coc12 [Compound 8b, 9-Ethyl-7-methyl-3-(4-methylphenyl)-5H-furo[2,3-h]benzopyran-5-one] | 149 to 151 | 10 ± 1.414 mm | - | 30 ± 1.414 | 30 ± 1.414 mm | 97 | 0.3 | 780 | 2.45 |  |  |  |  | 38.6 ± 0.513 | 38.6
9 | CCc1cc2c(-c3ccccc3)cc(=O)oc2c2c(-c3ccccc3)coc12 [Compound 8d, 3,7-Diphenyl-9-ethyl-5H-furo[2,3-h]benzopyran-5-one] | 178 to 180 | 12 ± 0.8165 mm | - | 30 ± 0.8165 | 23 ± 1.414 mm | 97 | 0.26 | 780 | 2.13 |  |  |  |  | 0.76 ± 0.0223 | 0.764

Further lines, with some results ahead:

Row | melting point [°C] | Compound | Inhibition Zone (mm) B. subtilis [1] | Inhibition Zone (mm) C. albicans [2] | Inhibition Zone (mm) E. coli [3] [mm] | Inhibition Zone (mm) S. aureus [4] | MIC [5, 6] [µg/mL] | MIC [5, 7] [mM] | MIC [5, 8] [µg/mL] | MIC [5, 9] [mM] | MIC (mM) Test [5, 10] | MIC (mg mL^−1) Test [5, 11] | MIC (mM) Control [5, 12] | MIC (mg mL^−1) Control [5, 13] | IC50 (E. coli DNA gyrase; [14]) [µM] | IC50 (E. coli DNA gyrase; [15]) [µM]
10 | 110 to 111 | CCc1cc2c(C)cc(=O)oc2c2c(-c3ccc(OC)cc3)coc12 [Compound 8c, 9-Ethyl-3-(4-methoxyphenyl)-7-methyl-5H-furo[2,3-h]benzopyran-5-one] | 12 ± 1.414 mm | - | 24 ± 1.414 | 20 ± 0.8165 mm | 97 | 0.29 | 780 | 2.33 |  |  |  |  |  | 
11 | 80 to 81 | CCc1cc2c(-c3ccccc3)cc(=O)oc2c2c(-c3ccc(C)cc3)coc12 [Compound 8e, 9-Ethyl-3-(4-methylphenyl)-7-phenyl-5H-furo[2,3-h]benzopyran-5-one] | 20 ± 1.414 mm | - | 25 ± 0.8165 | 22 ± 1.414 mm | 97 | 0.25 | 390 | 1.03 |  |  |  |  |  | 
12 | 150 to 153 | CCc1cc2c(-c3ccccc3)cc(=O)oc2c2c(-c3ccc(OC)cc3)coc12 [Compound 8f, 9-Ethyl-3-(4-methoxyphenyl)-7-phenyl-5H-furo[2,3-h]benzopyran-5-one] | 14 ± 1.414 mm | - | 18 ± 0.8165 | 20 ± 1.414 mm | 3120 | 7.88 | 6250 | 15.8 |  |  |  |  |  | 
